Test system: patients with advanced solid tumors
Test: Safety: treatment-emergent and senaparib-related adverse events graded per NCI CTCAE v4.03
Assay type: in vivo
Method: This phase I, open-label, multicenter, dose-escalation, and dose-expansion study was conducted at three national clinical institutions in China. […] At baseline, all patients enrolled in the dose-escalation phase had to have at least one evaluable lesion, and those in the dose-expansion period had to have at least one measurable lesion, according to Response Evaluation Criteria in Solid Tumors version 1.1 (RECIST v1.1).[16] Entry to the dose-expansion cohort required the presence of a BRCA mutation, with the exception of patients with ovarian carcinoma, fallopian tube carcinoma, and primary peritoneal carcinoma. Full study eligibility criteria are provided in Supplementary Table S1.
Dose escalation was conducted using a modified Fibonacci 3 + 3 method (Supplementary Fig. S1).[17] Patients were administered oral senaparib from a planned starting dose of 2 mg once daily (QD), with preliminary dose escalation to 120 mg via nine dose groups, in order of their entry into the study. At a given dose level, each patient received a single dose of senaparib followed by a 7-day washout period. They then entered a continuous dosing period to confirm the safety and PK profile, in which they received senaparib QD from day 1 to day 21 of each 3-week cycle. Progression to the next higher dose required approval from the Data Safety Monitoring Committee (DSMC) upon review of the safety and PK data of the previous dose. A 50-mg twice-daily (BID) dosing group was added (planned enrollment, n = 6 patients) based on a DSMC review of the safety, PK, and efficacy analysis of the completed QD dose groups in the phase I clinical trial of senaparib dose escalation in Australia (NCT03507543), which commenced prior to the start of this trial.
The dose-expansion period included 3 populations: dose groups in which at least one patient achieved complete response (CR) or partial response (PR) per RECIST v1.1[16] and 1 dose group higher (evaluated for safety), as well as the dose group at the maximum tolerated dose (MTD)/recommended phase II dose (RP2D). Each of these groups included those patients in the respective dose-escalation group plus a planned additional 10 patients (approximately 20 patients in the MTD/RP2D group) with BRCA^mut+ solid tumors (ovarian, breast, or prostate cancer were preferred, and ovarian cancer could be BRCA wild type). Patients received senaparib monotherapy orally QD or BID (50-mg dose only) over each 3-week cycle until disease progression or unacceptable toxicity.
DLTs were predefined toxicities (Supplementary Table S2) recorded over the 7 days following the single-dose administration of senaparib and during the first treatment cycle (day 1-day 21) for each dose group in the dose-escalation period only. The MTD was defined as the maximum dose at which ≤1/6 patients experienced a DLT. Senaparib PK parameters were derived from blood samples collected from patients after the single administration, and at regular intervals during the first cycle of the dose-escalation and dose-expansion periods. Plasma concentrations of senaparib were determined using high-performance liquid chromatography-tandem mass spectrometry. Tumor response was assessed every 6 weeks per RECIST v1.1,[16] recording objective response rate (ORR), disease control rate (DCR), duration of response (DOR), and progression-free survival (PFS) by dose level for all patients and for those harboring BRCA^mut+ tumors.

O=C(c1cc(Cn2c(=O)[nH]c(=O)c3c(F)cccc32)ccc1F)N1CCN(c2ncccn2)CC1 [Senaparib]
Appetite decreased TRAE, All (80 mg QD n = 9): 3 (33.3) n (%) | Appetite decreased TRAE, Gr≥3 (80 mg QD n = 9): 0 n (%) | Asthenia TRAE, All (80 mg QD n = 9): 2 (22.2) n (%) | Asthenia TRAE, Gr≥3 (80 mg QD n = 9): 0 n (%) | Blood bilirubin increased TRAE, All (80 mg QD n = 9): 2 (22.2) n (%) | Blood bilirubin increased TRAE, Gr≥3 (80 mg QD n = 9): 0 n (%) | Blood creatinine increased TRAE, All (80 mg QD n = 9): 2 (22.2) n (%) | Blood creatinine increased TRAE, Gr≥3 (80 mg QD n = 9): 0 n (%) | Hypokalemia TRAE, All (80 mg QD n = 9): 3 (33.3) n (%) | Nausea TRAE, All (80 mg QD n = 9): 4 (44.4) n (%) | Nausea TRAE, Gr≥3 (80 mg QD n = 9): 0 n (%) | Neutrophil count decreased TRAE, All (80 mg QD n = 9): 4 (44.4) n (%) | Neutrophil count decreased TRAE, Gr≥3 (80 mg QD n = 9): 1 (11.1) n (%) | Platelet count decreased TRAE, All (80 mg QD n = 9): 4 (44.4) n (%) | Platelet count decreased TRAE, Gr≥3 (80 mg QD n = 9): 2 (22.2) n (%) | SAEs, events (80 mg QD n = 9): 5 n ev | SAEs, patients (80 mg QD n = 9): 5 (55.6) n (%) | TEAE Grade ≥3, events (80 mg QD n = 9): 12 n ev | TEAE Grade ≥3, patients (80 mg QD n = 9): 6 (66.7) n (%) | TEAEs leading to death, events (80 mg QD n = 9): 1 n ev | TEAEs leading to death, patients (80 mg QD n = 9): 1 (11.1) n (%) | TEAEs leading to dose discontinuation, events (80 mg QD n = 9): 4 n ev | TEAEs leading to dose discontinuation, patients (80 mg QD n = 9): 1 (11.1) n (%) | TEAEs leading to dose interruption, events (80 mg QD n = 9): 9 n ev | TEAEs leading to dose interruption, patients (80 mg QD n = 9): 4 (44.4) n (%) | TEAEs leading to dose reduction, events (80 mg QD n = 9): 3 n ev | TEAEs leading to dose reduction, patients (80 mg QD n = 9): 3 (33.3) n (%) | TRAEs Grade ≥3, events (80 mg QD n = 9): 10 n ev | TRAEs Grade ≥3, patients (80 mg QD n = 9): 5 (55.6) n (%) | TRAEs, events (80 mg QD n = 9): 109 n ev | TRAEs, patients (80 mg QD n = 9): 9 (100) n (%) | Vomiting TRAE, All (80 mg QD n = 9): 2 (22.2) n (%) | Vomiting TRAE, Gr≥3 (80 mg QD n = 9): 1 (11.1) n (%) | WBC decreased TRAE, All (80 mg QD n = 9): 5 (55.6) n (%) | WBC decreased TRAE, Gr≥3 (80 mg QD n = 9): 1 (11.1) n (%) | ALT increased TRAE, All (100 mg QD n = 20): 5 (25.0) n (%) | ALT increased TRAE, Gr≥3 (100 mg QD n = 20): 0 n (%) | AST increased TRAE, All (100 mg QD n = 20): 4 (20.0) n (%) | AST increased TRAE, Gr≥3 (100 mg QD n = 20): 1 (5.0) n (%) | Anemia TRAE, All (100 mg QD n = 20): 11 (55.0) n (%) | Anemia TRAE, Gr≥3 (100 mg QD n = 20): 4 (20.0) n (%) | Any TEAE, All (100 mg QD n = 20): 20 (100) n (%) | Any TEAE, Gr≥3 (100 mg QD n = 20): 7 (35.0) n (%) | Any TEAE, events (100 mg QD n = 20): 158 n ev | Any TEAE, patients (100 mg QD n = 20): 20 (100) n (%) | Any TRAE, All (100 mg QD n = 20): 20 (100) n (%) | Any TRAE, Gr≥3 (100 mg QD n = 20): 7 (35.0) n (%) | Appetite decreased TRAE, All (100 mg QD n = 20): 5 (25.0) n (%) | Appetite decreased TRAE, Gr≥3 (100 mg QD n = 20): 0 n (%) | Asthenia TRAE, All (100 mg QD n = 20): 5 (25.0) n (%) | Asthenia TRAE, Gr≥3 (100 mg QD n = 20): 0 n (%) | Blood bilirubin increased TRAE, All (100 mg QD n = 20): 3 (15.0) n (%) | Blood bilirubin increased TRAE, Gr≥3 (100 mg QD n = 20): 0 n (%) | Blood creatinine increased TRAE, All (100 mg QD n = 20): 2 (10.0) n (%) | Blood creatinine increased TRAE, Gr≥3 (100 mg QD n = 20): 0 n (%) | Hypokalemia TRAE, All (100 mg QD n = 20): 0 n (%) | Hypokalemia TRAE, Gr≥3 (100 mg QD n = 20): 0 n (%) | Nausea TRAE, All (100 mg QD n = 20): 4 (20.0) n (%)
